The values that follow come from article PMC7037447, “Syntheses of L-Rhamnose-Linked Amino Glycerolipids and Their Cytotoxic Activities against Human Cancer Cells” (Molecules, 2020).

Read-outs that look alike come from different tables or passages of the source.

The test system of data set [1] is MDA-MB-231. Kind of data set: MTS cell viability assay, 48 h. Type of data set: cell-based, human. Conditions: MDA-MB-231, 48 h. The procedure:
[…] […] This compound carries a primary amino group at the sn-3 position of the glycerolipid and L-rhamno sugar at the sn-2 position via an α-rhamnosidic linkage.
(§1) The cell lines were cultured from frozen stocks originally obtained from ATCC (Manassas, VA, USA). MDA-MB-231, JIMT-1, DU145, MDA-MB-468, Hs578t and MDA-MB-453 were grown in DMEM medium supplemented with 10% FBS. BT-474 cells were grown in DMEM/F12 medium supplemented with 10% FBS. MiaPaCa2 was cultured in DMEM supplemented with 10% FBS and 2.5% horse serum. All the media contained penicillin/streptomycin. U-251 and U-87 in Eagle MEM supplemented by 10% FBS, 1% Non-essential amino acids, 1 mM sodium pyruvate and 2 mM glutamine. BT-549 was cultured in RPMI 1640 medium supplemented with 10% FBS.
The effects of the GAELs on the viability of the epithelial cancer cell lines were determined as previously described. Briefly, equal numbers of the cells were dispersed into 96-well plates. […] MTS reagent [3-(4,5-dimethylthiazol-2-yl)-5-(3-carboxymethoxyphenyl)-2-(4-sulfophenyl)-2H-tetrazolium, inner salt; Promega, Madison, WI, USA] (20% v/v) was subsequently added and the plates were incubated for 1–4 h in a CO2 incubator followed by measurement of the medium at OD490 with a plate reader (Molecular Devices).

In data set [2] the test system is JIMT-1. Kind of data set: MTS cell viability assay, 48 h. Type of data set: cell-based, human. Conditions: JIMT-1, 48 h. The procedure:
(§2) The cells were incubated with increasing concentrations of the compounds (0–30 µM) for 48 h followed by assessment of cell viability using the MTS assay. […] This compound carries a primary amino group at the sn-3 position of the glycerolipid and L-rhamno sugar at the sn-2 position via an α-rhamnosidic linkage.
as §1
(§3) The effects of the GAELs on the viability of the epithelial cancer cell lines were determined as previously described. Briefly, equal numbers of the cells were dispersed into 96-well plates. After 24 h, the cells were incubated with the compounds (0–30 µM) for 48 h. MTS reagent [3-(4,5-dimethylthiazol-2-yl)-5-(3-carboxymethoxyphenyl)-2-(4-sulfophenyl)-2H-tetrazolium, inner salt; Promega, Madison, WI, USA] (20% v/v) was subsequently added and the plates were incubated for 1–4 h in a CO2 incubator followed by measurement of the medium at OD490 with a plate reader (Molecular Devices). Wells with media but no cells were treated in similar fashion and the values utilized as blank.
(Tetrazolium assays rely on reduction of a dye to a coloured formazan, in cell work by metabolically active cells.)

Data set [3] relates to DU-145. Kind of data set: MTS cell viability assay, 48 h. Conditions: DU-145, 48 h. Type of data set: cell-based, human. The protocol:
as §2, §1
(§4) The effects of the GAELs on the viability of the epithelial cancer cell lines were determined as previously described. Briefly, equal numbers of the cells were dispersed into 96-well plates. After 24 h, the cells were incubated with the compounds (0–30 µM) for 48 h. MTS reagent [3-(4,5-dimethylthiazol-2-yl)-5-(3-carboxymethoxyphenyl)-2-(4-sulfophenyl)-2H-tetrazolium, inner salt; Promega, Madison, WI, USA] (20% v/v) was subsequently added and the plates were incubated for 1–4 h in a CO2 incubator followed by measurement of the medium at OD490 with a plate reader (Molecular Devices).

The test system of data set [4] is MiaPaCa2. In words: MTS cell viability assay, 48 h. Type of data set: cell-based, human. The procedure:
as §2, §1, §4

The subject of data set [5] is PC-3. In words: MTS cell viability assay, 48 h. Type of data set: cell-based, human. The settings on record: PC-3, 48 h. The protocol: as §2, §3
Data set [6] deals with human epithelial cancer cell lines: breast (MDA-MB-231, JIMT-1), pancreas (MiaPaCa2) and prostate (DU-145, PC-3). Kind of data set: MTS cell viability assay, 48 h, across the panel of cell lines. Type of data set: cell-based. Conditions: for CC50: read-out: CC50 values across the cell lines; for Cytotoxicity against the cancer cells: highest dose tested 30 µM, data not shown. The protocol:
as §2, §1, §3

Data set [7] relates to MDA-MB-231. More on the design: method as in PMID 28177244. Conditions: cited from earlier work.
Data set [8] deals with JIMT-1. Also on record: method as in PMID 28177244. The settings on record: cited from earlier work.
Data set [9] has as its system MiaPaCa2. More on the design: method as in PMID 28177244. Conditions: cited from earlier work.
Data set [10] relates to DU-145. Also on record: method as in PMID 28177244. Conditions: cited from earlier work.
Data set [11] has as its system PC-3. More on the design: method as in PMID 28177244. Conditions: cited from earlier work.
Data set [12] concerns human epithelial cancer cell lines: breast (MDA-MB-231, JIMT-1), pancreas (MiaPaCa2) and prostate (DU-145, PC-3). More on the design: method as in PMID 28177244. The settings on record: range over all cell lines; read-out: CC50 values across the cell lines; cited from earlier work.
Data set [13] has as its system DU-145. Kind of data set: Cell membrane integrity, ethidium homodimer-1 (EthD-1) staining. Type of data set: cell-based. The settings on record: DU-145, 0.01%, 10 min. The procedure:
(§5) After determining that the mechanism of cell death of compound 3 is independent of caspases-mediated apoptosis, we evaluated if cell death was due to membrane disruption or lysis using the cell impermeant ethidium homodimer-1 (EthD-1) dye that emits red fluorescence upon binding to DNA [13, 14]. DU-145 and JIMT-1 were treated with compound 3 at 10 and 15 µM, respectively. After 4–6 h, the cells were treated with EthD-1 dye and monitored under fluorescence microscopy.
(§6) Equal numbers of JIMT-1 and DU145 cells were dispersed into 96-well plates. After 24 h the cells were incubated with varying concentration of compounds 3 or 4 (4–6 µM) for 5–6 h. Subsequently, 2 µM of the cell membrane impermeant dye, ethidium homodimer-1 (EthD-1 (Molecular Probes, Eugene, OR, USA) that emits red fluorescence upon binding to DNA was added and the cells analysed by fluorescence microscopy. EthD-1 staining was compared to negative controls with no treatment and positive control treated with 0.01% Triton X-100 for 10 min.
(§7) Figure 5 Evaluation of effect of compound 3 on cell membrane of DU-145 and JIMT-1 cell lines using cell impermeant ethidium homodimer-1 (EthD-1) dye that emits red fluorescence upon binding to DNA.

Data set [14] concerns JIMT-1. Described as above. Type of data set: cell-based. Conditions: JIMT-1, 0.01%, 10 min. The protocol:
as §5, §6, §7

Where [15] appears, read: Homo sapiens, MTS, read-out: CC50.
The mark [16] stands for this setting: Homo sapiens, MIA PaCa-2, MiaPaCa2, 48 h, MTS, read-out: CC50.
The mark [17] stands for this setting: Homo sapiens, 48 h, range or bound over all cell lines, 48 h, MTS.

Regarding “1-Hexadecyl-2R-methoxyl-3-O-α-L-rhamnopyranosyl-sn-glycerol [Compound 2]”, the CC50 in the data set with MDA-MB-231 [1] (MTS, concentration decreasing cell viability by 50% relative to untreated control, read-out: CC50) is 26 µM; with JIMT-1 [2] (MTS, read-out: CC50), 28 µM; in the data set with DU-145 [3] (MTS, read-out: CC50), 25 µM; in the data set on MiaPaCa2 [4] (MiaPaCa2, 48 h, MTS, read-out: CC50), more than 30 µM; in the data set with PC-3 [5] (MTS, read-out: CC50), 25 µM; in [6] (range or bound over all cell lines, 48 h, MTS), not below 21.5 µM.

With `CCCCCCCCCCCCCCCCOCC(CNC(=O)CCc1ccc(O)cc1)O[C@@H]1O[C@@H](C)[C@H](O)[C@@H](O)[C@H]1O` (stereo partly drawn) [Compound 4], the CC50 with MDA-MB-231 [1] (Homo sapiens, MTS, concentration decreasing cell viability by 50% relative to untreated control, read-out: CC50) is 23 µM; in the data set on JIMT-1 [2] (setting [15]) it was 25 µM; with DU-145 [3] (setting [15]), 30 µM; in the data set on MiaPaCa2 [4] (setting [16]), more than 30 µM; in the data set on PC-3 [5] (setting [15]) it was 21.5 µM; in data set [6] (setting [17]), not below 21.5 µM.

Consider `CCCCCCCCCCCCCCCCOCC(CO[C@@H]1O[C@@H](CO)[C@H](O)[C@@H](O)[C@@H]1N)OC` (stereo partly drawn) [Compound 1], for which the CC50 is 11 µM in the data set with MDA-MB-231 [7]; 6.5 µM in the data set with JIMT-1 [8]; 7.5 µM in the data set with MiaPaCa2 [9]; 12.5 µM in the data set on DU-145 [10]; 12.5 µM with PC-3 [11]; 6.5 to 12 µM in data set [12].

As for Triton X-100 [reference compound], the “EthD-1 staining, positive control” value in the data set on DU-145 [13] and with JIMT-1 [14] was “stained bright red” each time.

For `C[C@H](O)[C@H](O)[C@@H](O)[C@@H](O)C=O` [rhamnose, L-Rhamnose], the “Cytotoxicity against the cancer cells” value in [6] was “not cytotoxic”.

`CCCCCCCCCCCCCCCCOCC(CN)OC1OC(CO)C(O)C(O)C1O` [Compound 5, 3-Amino-1-hexadecyloxyl-2R-O-β-L-glucopyranosyl-sn-glycerol]: the CC50 (with JIMT-1 [2] (setting [15]); in the data set on DU-145 [3] (setting [15]); in the data set on MiaPaCa2 [4] (setting [16]); in the data set on PC-3 [5] (setting [15]); in data set [6] (setting [17])) was more than 30 µM throughout. Besides, in data set [6] (depending on the cell line, up to 30 µM, 48 h), the Loss of viability is on record as 0–35%.

As to `O=C(O)CCCc1ccc(N(CCCl)CCCl)cc1` [Chlorambucil, reference compound], the CC50 in the data set with MDA-MB-231 [1] (Homo sapiens) was more than 150 µM; in the data set with JIMT-1 [2] (Homo sapiens), more than 150 µM; in the data set on DU-145 [3] (Homo sapiens), more than 150 µM; in the data set on MiaPaCa2 [4] (Homo sapiens, MIA PaCa-2, 48 h), more than 150 µM; in the data set with PC-3 [5] (Homo sapiens) it was more than 150 µM; in [6] (Homo sapiens, 48 h) it was more than 150 µM.

`CCCCCCCCCCCCCCCCOCC(CO[C@H]1O[C@H](CO)[C@@H](O)[C@H](O)[C@H]1N)OC` (stereo partly drawn) [Compound 7]: the CC50 in the data set with JIMT-1 [8] is 9 µM; in the data set on MiaPaCa2 [9], 9 µM; in the data set on DU-145 [10] it was 9 µM; in the data set on PC-3 [11], 13.5 µM.

For the molecule `CCCCCCCCCCCCCCCCOCC(CN)OC1OC(CN)C(O)C(O)C1O` [Compound 6, 3-Amino-1-hexadecyloxyl-2R-(6′-amino-6′deoxy-O-α-L-mannopyranosyl)-sn-glycerol], the CC50 was 12.5 µM with JIMT-1 [2] (setting [15]); 17.5 µM in the data set on DU-145 [3] (setting [15]); 19 µM with MiaPaCa2 [4] (setting [16]); 25 µM in the data set on PC-3 [5] (setting [15]); 12.5 to 25 µM in [6] (setting [17]). Besides, the “Times less active than glycolipid 3” value in [6] (CC50 compared with 3) was 2- to 4.

As for `OC[C@@H]1OC(O)[C@H](O)[C@H](O)[C@H]1O` (stereo partly drawn) [L-mannose], the “Cytotoxicity against the cancer cells” value in [6] is “not cytotoxic”.

Turning to `OC[C@@H]1OC(O)[C@@H](O)[C@H](O)[C@H]1O` (stereo partly drawn) [L-glucose], in data set [6], the “Cytotoxicity against the cancer cells” value is recorded as “not cytotoxic”.
